Experimental data as given in PubChem BioAssay AID588803 (The Scripps Research Institute Molecular Screening Center, 2011).
Active and inactive are the calls of the source. The rule behind the calls is not given here.

Experiments:
Assay in all cases: PME-1 and off-target engagement in cells – ABPP-SILAC, LC-MS/MS, mouse cells, selectivity assay for PME-1 inhibitor project, late-stage follow-up (AID 588803)
Fam108b1 = conditions: serine hydrolase ratios, active compounds read low
Prcp = conditions: serine hydrolase ratios, active compounds read low
Acot1 = conditions: serine hydrolase ratios, active compounds read low
Dpp8 = conditions: serine hydrolase ratios, active compounds read low
Pla2g15 = conditions: serine hydrolase ratios, active compounds read low
Pafah1b2 = conditions: serine hydrolase ratios, active compounds read low
Lyplal1 = conditions: serine hydrolase ratios, active compounds read low
[1] = molecular target: Prolyl endopeptidase (Mus musculus) (UniProt Q9QUR6); conditions: serine hydrolase ratios, Prep, active compounds read low
Sequence of Prolyl endopeptidase (Mus musculus) (Q9QUR6 whole entry, looked up): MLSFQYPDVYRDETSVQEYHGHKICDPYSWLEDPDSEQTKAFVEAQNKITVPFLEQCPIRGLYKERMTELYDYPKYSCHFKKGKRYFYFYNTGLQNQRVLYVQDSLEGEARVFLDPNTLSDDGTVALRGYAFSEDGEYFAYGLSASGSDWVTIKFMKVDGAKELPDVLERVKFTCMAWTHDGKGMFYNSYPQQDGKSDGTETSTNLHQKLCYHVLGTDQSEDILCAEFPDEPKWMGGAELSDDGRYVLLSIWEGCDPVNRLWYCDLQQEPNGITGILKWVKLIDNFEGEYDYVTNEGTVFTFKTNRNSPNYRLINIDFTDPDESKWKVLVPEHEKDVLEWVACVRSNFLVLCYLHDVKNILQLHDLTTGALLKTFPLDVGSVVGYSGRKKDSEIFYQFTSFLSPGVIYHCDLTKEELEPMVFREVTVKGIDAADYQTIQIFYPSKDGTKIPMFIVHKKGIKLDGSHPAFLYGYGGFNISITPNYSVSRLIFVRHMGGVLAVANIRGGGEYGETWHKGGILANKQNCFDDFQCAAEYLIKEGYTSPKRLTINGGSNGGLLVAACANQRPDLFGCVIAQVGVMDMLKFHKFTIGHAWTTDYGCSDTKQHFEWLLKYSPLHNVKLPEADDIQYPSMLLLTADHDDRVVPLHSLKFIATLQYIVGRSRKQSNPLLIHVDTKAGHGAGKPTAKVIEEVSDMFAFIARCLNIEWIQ

Lypla2 = conditions: serine hydrolase ratios, active compounds read low
Acot2 = conditions: serine hydrolase ratios, active compounds read low
Ctsa = conditions: serine hydrolase ratios, active compounds read low
Pla2g6 = conditions: serine hydrolase ratios, active compounds read low
[2] = molecular target: Acyl-protein thioesterase 1 (Mus musculus) (UniProt P97823); conditions: serine hydrolase ratios, Lypla1, active compounds read low
Sequence of Acyl-protein thioesterase 1 (Mus musculus) (P97823 whole entry, looked up): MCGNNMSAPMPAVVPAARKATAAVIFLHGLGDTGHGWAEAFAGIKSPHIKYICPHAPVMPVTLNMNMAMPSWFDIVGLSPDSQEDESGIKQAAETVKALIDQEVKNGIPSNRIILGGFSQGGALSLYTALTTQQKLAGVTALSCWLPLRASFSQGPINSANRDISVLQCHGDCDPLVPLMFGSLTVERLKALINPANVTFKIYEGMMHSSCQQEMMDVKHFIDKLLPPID

Dpp9 = conditions: serine hydrolase ratios, active compounds read low
Apeh = conditions: serine hydrolase ratios, active compounds read low
Abhd11 = conditions: serine hydrolase ratios, active compounds read low
Acot9 = conditions: serine hydrolase ratios, active compounds read low
Prepl = conditions: serine hydrolase ratios, active compounds read low
[3] = molecular target: Palmitoyl-protein thioesterase ABHD10, mitochondrial (Mus musculus) (UniProt Q6PE15); conditions: serine hydrolase ratios, active compounds read low
Sequence of Palmitoyl-protein thioesterase ABHD10, mitochondrial (Mus musculus) (Q6PE15 whole entry, looked up): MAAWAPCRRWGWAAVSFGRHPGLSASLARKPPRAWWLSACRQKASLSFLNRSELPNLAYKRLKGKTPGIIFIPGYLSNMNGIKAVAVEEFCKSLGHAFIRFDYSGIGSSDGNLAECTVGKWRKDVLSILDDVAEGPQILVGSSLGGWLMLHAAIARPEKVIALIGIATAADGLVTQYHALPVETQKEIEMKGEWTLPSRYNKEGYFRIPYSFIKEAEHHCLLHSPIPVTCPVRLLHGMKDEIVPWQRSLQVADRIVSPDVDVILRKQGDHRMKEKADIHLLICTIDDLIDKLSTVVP

Pnpla8 = conditions: serine hydrolase ratios, active compounds read low
Acot7 = conditions: serine hydrolase ratios, active compounds read low
Pme1 = conditions: serine hydrolase ratios, active compounds read low
Abhd12 = conditions: serine hydrolase ratios, active compounds read low
Ache = conditions: serine hydrolase ratios, active compounds read low
Parl = conditions: serine hydrolase ratios, active compounds read low
[4] = molecular target: Monoacylglycerol lipase ABHD6 (Mus musculus) (UniProt Q8R2Y0); conditions: serine hydrolase ratios, active compounds read low
Sequence of Monoacylglycerol lipase ABHD6 (Mus musculus) (Q8R2Y0 whole entry, looked up): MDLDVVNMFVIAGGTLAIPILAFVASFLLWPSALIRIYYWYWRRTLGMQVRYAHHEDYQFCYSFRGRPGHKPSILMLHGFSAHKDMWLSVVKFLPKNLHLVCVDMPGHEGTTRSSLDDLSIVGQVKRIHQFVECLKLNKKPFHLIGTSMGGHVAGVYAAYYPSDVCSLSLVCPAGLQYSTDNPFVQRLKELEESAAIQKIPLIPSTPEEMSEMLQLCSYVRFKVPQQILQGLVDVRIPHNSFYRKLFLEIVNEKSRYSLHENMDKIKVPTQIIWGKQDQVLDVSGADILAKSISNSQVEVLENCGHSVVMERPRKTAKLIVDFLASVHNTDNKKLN

Ddhd2 = conditions: serine hydrolase ratios, active compounds read low
Faah = conditions: serine hydrolase ratios, active compounds read low
Dpp7 = conditions: serine hydrolase ratios, active compounds read low
Serhl = conditions: serine hydrolase ratios, active compounds read low
Ppt2 = conditions: serine hydrolase ratios, active compounds read low
Htra2 = conditions: serine hydrolase ratios, active compounds read low
Rbbp9 = conditions: serine hydrolase ratios, active compounds read low
Bat5 = conditions: serine hydrolase ratios, active compounds read low
Nceh1 = conditions: serine hydrolase ratios, active compounds read low
[5] = molecular target: Platelet-activating factor acetylhydrolase 2, cytoplasmic (Mus musculus) (UniProt Q8VDG7); conditions: serine hydrolase ratios, Pafah2, active compounds read low
Sequence of Platelet-activating factor acetylhydrolase 2, cytoplasmic (Mus musculus) (Q8VDG7 whole entry, looked up): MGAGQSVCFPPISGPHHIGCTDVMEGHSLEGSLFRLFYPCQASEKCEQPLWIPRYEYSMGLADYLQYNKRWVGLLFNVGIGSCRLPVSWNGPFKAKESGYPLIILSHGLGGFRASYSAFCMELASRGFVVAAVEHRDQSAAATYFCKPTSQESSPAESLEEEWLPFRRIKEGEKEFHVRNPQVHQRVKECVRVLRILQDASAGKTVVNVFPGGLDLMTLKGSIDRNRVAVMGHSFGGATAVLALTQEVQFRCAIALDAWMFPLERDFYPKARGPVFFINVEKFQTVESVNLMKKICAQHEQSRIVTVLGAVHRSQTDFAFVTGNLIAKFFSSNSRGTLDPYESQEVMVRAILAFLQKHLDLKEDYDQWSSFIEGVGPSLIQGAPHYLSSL

Fasn = conditions: serine hydrolase ratios, active compounds read low
Pgap1 = conditions: serine hydrolase ratios, active compounds read low
Iah1 = conditions: serine hydrolase ratios, active compounds read low
Pafah1b3 = conditions: serine hydrolase ratios, active compounds read low

Q: With `COC(=O)N1C(=O)[C@](c2ccccc2)(C2CCCC2)N1C(=O)OC` as the compound, how does the SILAC ratio (probe labeling remaining) (Fam108b1) read?
A: Its SILAC ratio (probe labeling remaining) is 1.2 (inactive).

Q: And the SILAC ratio (probe labeling remaining) (Prcp)?
A: Its SILAC ratio (probe labeling remaining) is 0.717 (inactive).

Q: And the SILAC ratio (probe labeling remaining) (Acot1)?
A: Its SILAC ratio (probe labeling remaining) is 0.914 (inactive).

Q: What about the SILAC ratio (probe labeling remaining) (Dpp8) of the same compound?
A: Its SILAC ratio (probe labeling remaining) is 0.859 (inactive).

Q: And the SILAC ratio (probe labeling remaining) (Pla2g15)?
A: Its SILAC ratio (probe labeling remaining) is 1.01 (inactive).

Q: What about the SILAC ratio (probe labeling remaining) (Pafah1b2) of the same compound?
A: The SILAC ratio (probe labeling remaining) was 0.887 (inactive).

Q: And the SILAC ratio (probe labeling remaining) (Lyplal1)?
A: The SILAC ratio (probe labeling remaining) was 1.29 (inactive).

Q: What about the SILAC ratio (probe labeling remaining) [1] of the same compound?
A: Its SILAC ratio (probe labeling remaining) is 1.01 (inactive).

Q: And the SILAC ratio (probe labeling remaining) (Lypla2)?
A: Its SILAC ratio (probe labeling remaining) is 0.927 (inactive).

Q: And the SILAC ratio (probe labeling remaining) (Acot2)?
A: Its SILAC ratio (probe labeling remaining) is 0.873 (inactive).

Q: And the SILAC ratio (probe labeling remaining) (Ctsa)?
A: Its SILAC ratio (probe labeling remaining) is 0.869 (inactive).

Q: And the SILAC ratio (probe labeling remaining) (Pla2g6)?
A: The SILAC ratio (probe labeling remaining) was 0.796 (inactive).

Q: And the SILAC ratio (probe labeling remaining) [2]?
A: The SILAC ratio (probe labeling remaining) was 1 (inactive).

Q: What about the SILAC ratio (probe labeling remaining) (Dpp9) of the same compound?
A: Its SILAC ratio (probe labeling remaining) is 0.937 (inactive).

Q: What about the SILAC ratio (probe labeling remaining) (Apeh) of the same compound?
A: The SILAC ratio (probe labeling remaining) was 0.821 (inactive).

Q: What about the SILAC ratio (probe labeling remaining) (Abhd11) of the same compound?
A: Its SILAC ratio (probe labeling remaining) is 0.946 (inactive).

Q: And the SILAC ratio (probe labeling remaining) (Acot9)?
A: Its SILAC ratio (probe labeling remaining) is 0.889 (inactive).

Q: What about the SILAC ratio (probe labeling remaining) (Prepl) of the same compound?
A: The SILAC ratio (probe labeling remaining) was 0.931 (inactive).

Q: What about the SILAC ratio (probe labeling remaining) [3] of the same compound?
A: The SILAC ratio (probe labeling remaining) was 0.951 (inactive).

Q: And the SILAC ratio (probe labeling remaining) (Pnpla8)?
A: The SILAC ratio (probe labeling remaining) was 1.09 (inactive).

Q: What about the SILAC ratio (probe labeling remaining) (Acot7) of the same compound?
A: The SILAC ratio (probe labeling remaining) was 1.32 (inactive).

Q: What about the SILAC ratio (probe labeling remaining) (Pme1) of the same compound?
A: Its SILAC ratio (probe labeling remaining) is 0.

Q: What about the SILAC ratio (probe labeling remaining) (Abhd12) of the same compound?
A: The SILAC ratio (probe labeling remaining) was 1.13 (inactive).

Q: And the SILAC ratio (probe labeling remaining) (Ache)?
A: Its SILAC ratio (probe labeling remaining) is 0.689 (inactive).

Q: And the SILAC ratio (probe labeling remaining) (Parl)?
A: Its SILAC ratio (probe labeling remaining) is 0.995 (inactive).

Q: What about the SILAC ratio (probe labeling remaining) [4] of the same compound?
A: Its SILAC ratio (probe labeling remaining) is 0.98 (inactive).

Q: What about the SILAC ratio (probe labeling remaining) (Ddhd2) of the same compound?
A: The SILAC ratio (probe labeling remaining) was 1.19 (inactive).

Q: What about the SILAC ratio (probe labeling remaining) (Faah) of the same compound?
A: Its SILAC ratio (probe labeling remaining) is 1.06 (inactive).

Q: And the SILAC ratio (probe labeling remaining) (Dpp7)?
A: Its SILAC ratio (probe labeling remaining) is 0.846 (inactive).

Q: And the SILAC ratio (probe labeling remaining) (Serhl)?
A: Its SILAC ratio (probe labeling remaining) is 1.12 (inactive).

Q: What about the SILAC ratio (probe labeling remaining) (Ppt2) of the same compound?
A: Its SILAC ratio (probe labeling remaining) is 0.812 (inactive).

Q: What about the SILAC ratio (probe labeling remaining) (Htra2) of the same compound?
A: Its SILAC ratio (probe labeling remaining) is 1.07 (inactive).

Q: What about the SILAC ratio (probe labeling remaining) (Rbbp9) of the same compound?
A: The SILAC ratio (probe labeling remaining) was 1.06 (inactive).

Q: What about the SILAC ratio (probe labeling remaining) (Bat5) of the same compound?
A: Its SILAC ratio (probe labeling remaining) is 1.06 (inactive).

Q: What about the SILAC ratio (probe labeling remaining) (Nceh1) of the same compound?
A: Its SILAC ratio (probe labeling remaining) is 1.01 (inactive).

Q: What about the SILAC ratio (probe labeling remaining) [5] of the same compound?
A: The SILAC ratio (probe labeling remaining) was 0.913 (inactive).

Q: And the SILAC ratio (probe labeling remaining) (Fasn)?
A: Its SILAC ratio (probe labeling remaining) is 0.971 (inactive).

Q: And the SILAC ratio (probe labeling remaining) (Pgap1)?
A: The SILAC ratio (probe labeling remaining) was 1.1 (inactive).

Q: And the SILAC ratio (probe labeling remaining) (Iah1)?
A: Its SILAC ratio (probe labeling remaining) is 1 (inactive).

Q: And the SILAC ratio (probe labeling remaining) (Pafah1b3)?
A: Its SILAC ratio (probe labeling remaining) is 0.962 (inactive).
